# Measurements: patent US20130252943A1, “BICYCLIC OXAZOLE LACTAMS AS ALLOSTERIC MODULATORS OF MGLUR5 RECEPTORS” (VANDERBILT UNIVERSITY, priority 2012, published 2013)
# Legend:
# [1] = target: human mGluR5 (Homo sapiens, UniProt P41594); experiment: Cell-based functional Ca2+ mobilization assay (FDSS), potentiation of glutamate EC20 response, H10H cell line; details: HEK H10H cells; for Emax: maximum average response at a single concentration, as percent of maximal glutamate response, glutamate EC20; for EC50: positive allosteric modulation in presence of glutamate EC20, concentration in mol/L
# Text: Human mGluR5a cDNA in pCMV6-XL6 mammalian expression plasmid was purchased from OriGene Technologies, Inc. (catalogue number SC326357) and subcloned into pcDNA3.1(−). Human embryonic kidney (HEK)293A cells were then transfected with human mGluR5a pcDNA3.1(−) using LipofectAmine-2000 (Invitrogen) and monoclones were selected and tested for functional response using a Ca^2+ mobilization assay. Monoclones were named for the species (“H” for human) plus the location on the plate (e.g. “10H”).
# HEK cells transfected with the human mGluR5a receptor (H10H or H12H cell line) were plated at 15,000 cells/well in clear-bottomed poly-D-lysinecoated assay plates (BD Falcon) in glutamate-glutamine-free growth medium and incubated overnight at 37° C. and 5% CO2. Cell-lines used were either the H10H or H12H cell-lines expressing the human mGluR5 receptor. The following day, the growth medium was removed and the cells were washed with assay buffer containing 1× Hank's balanced salt solution (Invitrogen, Carlsbad, Calif.), 20 mM HEPES, 2.5 mM probenecid, pH 7.4 and left with 20 μL of this reagent. Following this step, the cells were loaded with calcium indicator dye, fluo-4 AM, to a final concentration of 2 μM and incubated for 40-45 min at 37° C. The dye solution was removed and replaced with assay buffer. Cell plates were held for 10-15 min at room temperature and were then loaded into the Functional Drug Screening System 6000 (FDSS 6000, Hamamatsu, Japan).
# After establishment of a fluorescence baseline for about 3 seconds, the compounds of the present invention were added to the cells, and the response in cells was measured. 2.3 minutes later an EC20 concentration of the mGluR5 receptor agonist glutamate was added to the cells, and the response of the cells was measured for about 1.7 minutes. All test compounds were dissolved and diluted to a concentration of 10 mM in 100% DMSO and then serially diluted into assay buffer for a 2× stock solution in 0.6% DMSO; stock compounds were then added to the assay for a final DMSO concentration of 0.3% after the first addition to the assay well. Calcium fluorescence measures were recorded as fold over basal fluorescence; raw data was then normalized to the maximal response to glutamate.
# The concentration-response curves of compounds of the present invention, obtained in the presence of EC20 of mGluR5 receptor agonist glutamate to determine positive allosteric modulation, were generated using Microsoft Excel with IDBS XLFit add-ins. The raw data file containing all time points was used as the data source in the analysis template. This was saved by the FDSS as a tab-delimited text file. Data were normalized using a static ratio function (F/F0) for each measurement of the total 350 values per well divided by each well's initial value. Data was then reduced as to peak amplitudes (Max—Initial Min) using a time range that starts approximately 1 second after the glutamate EC20 addition and continues for approximately 40 seconds. This is sufficient time to capture the peak amplitude of the cellular Calcium response. Individual amplitudes were expressed as % EMax by multiplying each amplitude by 100 and then dividing the product by the mean of the amplitudes derived from the glutamate ECMax-treated wells. pEC50 values for test compounds were generated by fitting the normalized values versus the log of the test compound concentration (in mol/L) using a 4 parameter logistic equation where none of the parameters were fixed. Each of the three values collected at each concentration of test compound were weighted evenly. Individual values falling outside the 95% prediction limits of the curve fit were automatically excluded from the fit. […] These two methods are in good agreement for curves with a clear plateau at the high concentration range. […] For consistency purposes across the range of potencies observed, all EMax values reported in this application are calculated using the maximum average response at a single concentration. […]
# human mGluR5, sequence (P41594 21-1180 isoform P41594-2 limits assumed): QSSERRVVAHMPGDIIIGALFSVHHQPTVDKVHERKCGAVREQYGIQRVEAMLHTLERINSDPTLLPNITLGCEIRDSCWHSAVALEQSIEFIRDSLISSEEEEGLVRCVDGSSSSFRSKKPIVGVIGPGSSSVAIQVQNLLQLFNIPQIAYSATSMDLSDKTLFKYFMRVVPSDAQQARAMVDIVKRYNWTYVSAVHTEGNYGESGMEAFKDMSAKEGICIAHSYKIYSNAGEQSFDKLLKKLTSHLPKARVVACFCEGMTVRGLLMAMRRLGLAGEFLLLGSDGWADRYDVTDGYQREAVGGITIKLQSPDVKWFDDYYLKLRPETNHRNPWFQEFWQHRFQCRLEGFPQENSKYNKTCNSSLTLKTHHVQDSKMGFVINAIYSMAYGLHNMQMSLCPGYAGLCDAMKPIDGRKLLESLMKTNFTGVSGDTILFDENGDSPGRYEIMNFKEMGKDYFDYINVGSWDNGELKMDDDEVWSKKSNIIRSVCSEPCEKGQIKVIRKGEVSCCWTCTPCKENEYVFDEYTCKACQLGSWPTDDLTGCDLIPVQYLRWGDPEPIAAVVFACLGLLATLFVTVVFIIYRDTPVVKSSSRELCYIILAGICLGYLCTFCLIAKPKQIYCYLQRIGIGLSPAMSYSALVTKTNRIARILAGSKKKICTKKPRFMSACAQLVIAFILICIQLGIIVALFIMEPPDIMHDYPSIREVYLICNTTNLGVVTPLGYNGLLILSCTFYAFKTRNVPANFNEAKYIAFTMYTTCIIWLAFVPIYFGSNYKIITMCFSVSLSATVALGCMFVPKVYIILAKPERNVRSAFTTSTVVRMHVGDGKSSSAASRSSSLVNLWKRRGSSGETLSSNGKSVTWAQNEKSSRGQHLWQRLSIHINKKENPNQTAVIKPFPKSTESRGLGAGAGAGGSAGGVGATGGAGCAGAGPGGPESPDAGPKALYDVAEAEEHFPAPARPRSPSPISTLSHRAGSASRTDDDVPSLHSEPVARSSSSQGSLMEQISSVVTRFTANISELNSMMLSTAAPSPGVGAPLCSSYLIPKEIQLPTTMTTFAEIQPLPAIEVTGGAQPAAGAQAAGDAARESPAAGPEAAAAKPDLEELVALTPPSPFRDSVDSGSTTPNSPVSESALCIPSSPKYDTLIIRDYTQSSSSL
SMILES,Emax [1],EC50 [1],melting point
O=C1c2oc(COc3ccccc3)nc2CCN1c1ccccn1 [Compound B8],32%,> 30.2 µM,123.3 °C
O=C1c2oc(COc3ccccc3)nc2CCN1c1cccnc1 [Compound B9],38%,> 30.2 µM,188.7 °C
O=C1c2oc(COc3ccccc3)nc2CCN1c1cncc(F)c1 [Compound B12],27%,> 30.2 µM,133.1 °C
Cc1ccc(N2CCc3nc(COc4ccccc4)oc3C2=O)nc1 [Compound B15],61%,> 10 µM,132.4 °C
Cc1ccnc(N2CCc3nc(COc4ccccc4)oc3C2=O)c1 [Compound B16],38%,> 10 µM,> 300 °C
Cc1cccnc1N1CCc2nc(COc3ccccc3)oc2C1=O [Compound B17],43%,> 10 µM,138.8 °C
Cc1cc(N2CCc3nc(COc4ccccc4)oc3C2=O)ncc1F [Compound B21],56%,> 10 µM,125.7 °C
Cc1cncc(N2CCc3nc(COc4ccccc4)oc3C2=O)n1 [Compound B24],44%,> 10 µM,138.8 °C
COc1nccnc1N1CCc2nc(COc3ccccc3)oc2C1=O [Compound B25],47%,> 10 µM,131.1 °C
"O=C1NCCc2nc(COc3ccccc3)oc21 [Compound B29, 2-phenoxymethyl-6,7-dihydro-5H-oxazolo[5,4-c]pyridin-4-one]",21%,> 30.2 µM,148.5 °C
"CN1CCc2nc(COc3ccccc3)oc2C1=O [Compound B33, 5-methyl-2-phenoxymethyl-6,7-dihydro-5H-oxazolo[5,4-c]pyridin-4-one]",35%,> 30.2 µM,
"O=C1NCCCc2nc(COc3ccccc3)oc21 [Compound B37, 2-phenoxymethyl-5,6,7,8-tetrahydro-3-oxa-1,5-diaza-azulen-4-one]",21%,> 30.2 µM,
CN1CCCc2nc(COc3ccccc3)oc2C1=O [Compound B39],25%,> 30.2 µM,

# Other lines, results leading:
Emax [1],EC50 [1],melting point,SMILES
64%,0.575 µM,,"CC1Cc2nc(COc3ccccc3)oc2C(=O)N1c1ccc(F)cc1 (racemic) [Compound B27, (rac)-5-(4-fluoro-phenyl)-6-methyl-2-phenoxymethyl-6,7-dihydro-5H-oxazolo[5,4-c]pyridin-4-ONE]"
83%,0.447 µM,135.8 °C,"O=C1c2oc(COc3ccccc3)nc2CCN1c1ccc(F)cc1 [Compound B1, 5-(4-fluoro-phenyl)-2-phenoxymethyl-6,7-dihydro-5H-oxazolo[5,4-c]pyridin-4-one]"
74%,1.1 µM,116.1 °C,O=C1c2oc(COc3ccccc3)nc2CCN1c1ccccc1F [Compound B2]
71%,1.32 µM,132.5 °C,O=C1c2oc(COc3ccccc3)nc2CCN1c1cccc(F)c1 [Compound B3]
75%,0.646 µM,137.2 °C,O=C1c2oc(COc3ccccc3)nc2CCN1c1cccc(F)c1F [Compound B4]
73%,0.891 µM,,O=C1c2oc(COc3ccccc3)nc2CCN1c1c(F)cccc1F [Compound B5]
77%,0.501 µM,151.7 °C,O=C1c2oc(COc3ccccc3)nc2CCN1c1ccc(F)c(F)c1 [Compound B6]
63%,1.51 µM,150.7 °C,O=C1c2oc(COc3ccccc3)nc2CCN1c1cc(F)cc(F)c1 [Compound B7]
49%,> 10 µM,130.9 °C,O=C1c2oc(COc3ccccc3)nc2CCN1c1ccncc1 [Compound B10]
62%,2.14 µM,131.9 °C,O=C1c2oc(COc3ccccc3)nc2CCN1c1ccc(F)cn1 [Compound B11]
76%,1.12 µM,131.7 °C,O=C1c2oc(COc3ccccc3)nc2CCN1c1ccccc1 [Compound B13]
53%,> 10 µM,116.3 °C,Cc1cccc(N2CCc3nc(COc4ccccc4)oc3C2=O)n1 [Compound B14]
65%,1.29 µM,216.7 °C,"COc1nc(N2CCc3nc(COc4ccccc4)oc3C2=O)ncc1F [Compound B22, 5-(5-fluoro-4-methoxy-pyrimidin-2-yl)-2-phenoxymethyl-6,7-dihydro-5H-oxazolo[5,4-c]pyridin-4-one]"
53%,3.09 µM,142 °C,COc1nccc(N2CCc3nc(COc4ccccc4)oc3C2=O)n1 [Compound B23]
79%,0.646 µM,,CC1CN(c2ccc(F)cc2)C(=O)c2oc(COc3ccccc3)nc21 (stereo not shown) [Compound B28]
68%,3.47 µM,119.2 °C,O=C1c2oc(COc3ccccc3)nc2CCN1CC1CC1 [Compound B34]
54%,0.977 µM,,"C[C@@H](N1CCc2nc(COc3ccccc3)oc2C1=O)C(C)(C)C [Compound B35, (R)-2-phenoxymethyl-5-(1,2,2-trimethyl-propyl)-6,7-dihydro-5H-oxazolo[5,4-c]pyridin-4-one]"
59%,0.891 µM,,O=C1c2oc(COc3ccccc3)nc2CCN1Cc1ccccc1 [Compound B36]
